Measured values reported in article PMC12064818, “A general assay platform to study protein pharmacology using ligand-dependent structural dynamics” (Nature Communications, 2025).

These compounds were tested against T1, FLuc-C-HiBiT (Photinus pyralis, UniProt P08659) (assay: biochemical). Settings: enzyme activity, 10 uM ATP; read-out: IC50 or SDR50 (mM) / FLuc E.
T1 construct: firefly luciferase with C-terminal HiBiT tag, E. coli expressed
T1 sequence (P08659 whole entry, looked up): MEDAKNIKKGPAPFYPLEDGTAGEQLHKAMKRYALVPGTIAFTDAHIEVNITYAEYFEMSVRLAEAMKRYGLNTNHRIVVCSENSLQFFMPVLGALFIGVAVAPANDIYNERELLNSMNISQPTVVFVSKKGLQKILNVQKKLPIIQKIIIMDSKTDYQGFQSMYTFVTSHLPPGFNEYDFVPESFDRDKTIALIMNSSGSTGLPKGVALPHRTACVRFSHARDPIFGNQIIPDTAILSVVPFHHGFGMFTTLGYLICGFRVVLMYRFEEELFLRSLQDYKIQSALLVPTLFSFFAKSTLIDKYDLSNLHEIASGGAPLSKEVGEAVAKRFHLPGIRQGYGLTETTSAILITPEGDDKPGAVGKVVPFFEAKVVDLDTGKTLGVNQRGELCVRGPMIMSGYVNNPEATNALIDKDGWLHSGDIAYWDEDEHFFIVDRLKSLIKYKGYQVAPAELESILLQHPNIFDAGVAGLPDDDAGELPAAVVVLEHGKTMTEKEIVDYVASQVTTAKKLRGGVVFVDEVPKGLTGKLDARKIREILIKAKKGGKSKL

Row | Structure (SMILES) | IC50 [mM]
1 | Cc1ccc(-c2cc3c(=O)n(CCNC(=O)c4cccc(Cl)c4)ccn3n2)c(C)c1 [NCGC00456978-01] | 0.00394
2 | Cc1ccc(-c2cc3c(=O)n(CCNC(=O)c4ccco4)ccn3n2)c(C)c1 [NCGC00456979-01] | 0.00989
3 | Cc1ccc(-c2cc3c(=O)n(CCNC(=O)c4ccccc4F)ccn3n2)c(C)c1 [NCGC00456982-01] | 0.007
4 | Cc1ccc(-c2cc3c(=O)n(CCNC(=O)c4ccc(N(C)C)cc4)ccn3n2)c(C)c1 [NCGC00456986-01] | 0.00313
5 | COc1ccccc1C(=O)NCCn1ccn2nc(-c3ccc(C)cc3C)cc2c1=O [NCGC00456987-01] | 0.00989
6 | Cc1cc(C)cc(C(=O)NCCn2ccn3nc(-c4ccc(C)cc4C)cc3c2=O)c1 [NCGC00456988-01] | 0.007
7 | COc1cccc(CC(=O)NCCn2ccn3nc(-c4ccc(C)c(C)c4)cc3c2=O)c1 [NCGC00457016-01] | 0.0111
8 | COc1cccc(C(=O)NCCn2ccn3nc(-c4ccc(C)c(C)c4)cc3c2=O)c1OC [NCGC00457018-01] | 0.00785
9 | Cc1ccc(-c2cc3c(=O)n(CCNC(=O)c4ccoc4)ccn3n2)cc1C [NCGC00457019-01] | 0.00989
10 | Cc1ccc(-c2cc3c(=O)n(CCNC(=O)c4cccc5[nH]ccc45)ccn3n2)cc1C [NCGC00457046-01] | 0.00785
11 | COc1cccc(-c2cc3c(=O)n(CCNC(=O)C4CCN(C(C)=O)CC4)ccn3n2)c1 [NCGC00457070-01] | 0.0124
12 | COc1cccc(-c2cc3c(=O)n(CCNC(=O)c4ccccc4Cl)ccn3n2)c1 [NCGC00457089-01] | 0.00881
13 | Cc1noc(-c2cccn3c(CNC(=O)c4ccc(C(C)(C)C)cc4)nnc23)n1 [NCGC00457512-01] | 0.00989
14 | CCc1nnc(CC2CCN(C(=O)Nc3ccc4c(c3)OCCO4)CC2)[nH]1 [NCGC00458299-01] | 0.0111
15 | CCCn1c(C)cnc1CC1CCN(C(=O)C2(c3ccc(OC)cc3)CC2)C1 (stereo not drawn) [NCGC00464172-01] | > 0.03
16 | O=C(Nc1ccc2c(c1)OCCO2)N1CC(c2nc(CCOCC3CC3)no2)C1 [NCGC00464361-01] | 0.00989
17 | Cc1cccc(OCCc2noc(C3CN(C(=O)Nc4ccc5c(c4)OCCO5)C3)n2)c1 [NCGC00464383-01] | 0.007
18 | O=C(O)[C@@H]1CN(Cc2ccccc2)C[C@@H]1C(=O)N1CCc2ccccc21 [NCGC00464394-01] | > 0.03
19 | O=C1NCCCCCCN(C(=O)Nc2ccc3c(c2)OCCO3)[C@H]2CCC[C@@H]12 [NCGC00465105-01] | 0.00351
20 | O=C1CC(c2ccccc2)N(C(=O)CNC(=O)Nc2ccc3c(c2)OCCO3)CCCCCN1 (stereo not drawn) [NCGC00465553-01] | 0.0176
21 | COc1ccc(C(=O)N2CCCC(c3nc(-c4ccccc4)no3)CCNC(=O)CC2)c(OC)n1 (stereo not drawn) [NCGC00465834-01] | 0.0111

Row | Structure (SMILES) | IC50 [mM]
22 | O=C1NCCCCCCN(C(=O)Nc2ccc3c(c2)OCCO3)[C@H]2CCCC[C@@H]12 [NCGC00466580-01] | 0.00881
23 | CN1CCCCCCN(C(=O)Nc2ccc3c(c2)OCCO3)CCC1=O [NCGC00466735-01] | 0.00989
24 | O=C1NCCCCCCN(Cc2ccncc2)[C@@H]2CN(C(=O)Nc3ccc4c(c3)OCCO4)CC[C@H]12 [NCGC00467232-01] | 0.0111
25 | Cc1cnc(CCNC(=O)Nc2ccc3c(c2)OCCO3)n1C1CC1 [NCGC00469576-01] | 0.0111
26 | Cc1cnc(CC2CCCN(C(=O)CCc3c[nH]c4ccccc34)C2)n1C(C)C (stereo not drawn) [NCGC00469687-01] | > 0.03
27 | Cc1cnc(CCNC(=O)Nc2ccc3c(c2)OCCO3)n1Cc1ccc(F)cc1 [NCGC00469838-01] | 0.0124
28 | Cn1c(=O)c2ccnn2c2ccc(C(=O)Nc3ccc4c(c3)OCCO4)cc21 [NCGC00470050-01] | 0.00989
29 | CCNc1cc(N2CCC(CCC(=O)Nc3ccc4c(c3)OCCO4)CC2)ncn1 [NCGC00470231-01] | 0.0124
30 | CCCNc1cc(N2CCC(CCC(=O)Nc3ccc4c(c3)OCCO4)CC2)ncn1 [NCGC00470245-01] | 0.00989
31 | Cc1ccc(NC(=O)Nc2cccn3nc(C)nc23)cc1 [NCGC00470444-01] | 0.0111
32 | CC(C)n1cc2cc(C(=O)Nc3ccc4c(c3)OCCO4)sc2c1 [NCGC00470606-01] | 0.00989
33 | CN1CCCN(C(=O)Nc2ccc3c(c2)OCCO3)c2ccccc21 [NCGC00470832-01] | 0.00989
34 | CCOCC(=O)N1c2ccccc2CC1c1noc(C(C)C)n1 (stereo not drawn) [NCGC00471496-01] | 0.0124
35 | CC(C)c1nc(C2Cc3ccccc3N2C(=O)NC2CCCC2)no1 (stereo not drawn) [NCGC00471499-01] | 0.014
36 | O=C(C1CCC1)N1c2ccccc2CC1c1noc(C2CCOCC2)n1 (stereo not drawn) [NCGC00471502-01] | 0.00989
37 | O=C(N1c2ccccc2CC1c1noc(C2CCOCC2)n1)C1(c2ccccc2)CC1 (stereo not drawn) [NCGC00471505-01] | 0.0124
38 | O=C(NC1CCCC1)N1c2ccccc2CC1c1noc(C2CCOCC2)n1 (stereo not drawn) [NCGC00471510-01] | 0.0111
39 | COc1cccc(CNC(=O)N2c3ccccc3CC2c2noc(C3CCOCC3)n2)c1 (stereo not drawn) [NCGC00471511-01] | 0.00989
40 | Cc1ccc(-c2nnc(C3CN(C(=O)c4sc(C)nc4C)CC34CCOCC4)o2)cc1 (stereo not drawn) [NCGC00471668-01] | > 0.03
41 | O=C1CCC2(C(=O)NCCc3ccccc3)CCCC=C2N1c1ccccc1 (stereo not drawn) [NCGC00472135-01] | 0.0157
42 | CCNC(=O)C1C(c2cccc(NC(=O)c3ccc(C)cc3)c2)OC(=O)N1Cc1ccc(F)cc1 (stereo not drawn) [NCGC00473984-01] | 0.00176

Row | Structure (SMILES) | IC50 [mM]
43 | CCNC(=O)C1C(c2cccc(NC(=O)c3ccc(OC)cc3)c2)OC(=O)N1Cc1ccc(C)cc1 (stereo not drawn) [NCGC00474207-01] | 0.00394
44 | COc1cccc(-c2nc3ccc(-c4ccc5c(c4)OCO5)cc3o2)c1OC [NCGC00474498-01] | 0.00248
45 | Cc1ccc(CN2C(=O)OC(c3cccc(NC(=O)c4ccc(C)cc4)c3)C2C(=O)NCC(C)C)cc1 (stereo not drawn) [NCGC00475004-01] | 0.00881
46 | CCCNC(=O)C1C(c2cccc(NC(=O)c3ccc(C)cc3)c2)OC(=O)N1Cc1ccc(C)cc1 (stereo not drawn) [NCGC00475006-01] | 0.00442
47 | CCc1ccc(NC(=O)N2CCCC(c3noc(COc4ccccc4)n3)C2)cc1 (stereo not drawn) [NCGC00475587-01] | 0.00279
48 | O=C(Nc1ccc2c(c1)OCCO2)N1CCCC(c2nc(C3CCOCC3)no2)C1 (stereo not drawn) [NCGC00475594-01] | 0.0111
49 | Nc1nc2c(nc(O)n2[C@H]2C[C@H](O)[C@@H](CO)O2)c(=O)[nH]1 [NCGC00475978-01] | > 0.03
50 | COc1ccc(C2=NOC3(CCN([S+](=O)([O-])c4cccs4)C3)C2)cc1 (stereo not drawn) [NCGC00476604-01] | > 0.03
51 | O=C1CC2(CCN(CC3CC3)CC2)Oc2ccccc21 [NCGC00476832-01] | 0.018
52 | O=C1CC2(CCN(CC3CC3)CC2)Oc2cc(Cl)ccc21 [NCGC00476866-01] | 0.018
53 | O=C(Nc1ccc(F)cc1)c1cc2cccnn2n1 [NCGC00477081-01] | 0.018
54 | O=C(Nc1cc(Cl)cc(Cl)c1)c1ccn2nccc2c1 [NCGC00477139-01] | 0.018
55 | C=CCNC(=O)c1cccc2c(C)nnn12 [NCGC00477166-01] | > 0.03
56 | Cc1nnn2c(C(=O)NC3CC3)cccc12 [NCGC00477171-01] | 0.0254
57 | O=C(Cc1cccc(Cl)c1)N1CCn2c(nnc2-c2ccccc2)C1 [NCGC00479548-01] | 0.0157
58 | O=C(NCCc1ccccc1F)c1nc2sccn2c1Br [NCGC00479849-01] | 0.007
59 | CC(C)c1nc2c(c(-c3ccc(O)cc3)n1)CN(Cc1ccccc1)CC2 [NCGC00480075-01] | > 0.03
60 | CN(C1CCc2ccccc2C1)[S+](=O)([O-])c1cccs1 (stereo not drawn) [NCGC00480121-01] | > 0.03
61 | CN1CC(=O)N(C2CCCC2)Cc2c1ncnc2N1CCOCC1 [NCGC00480226-01] | > 0.03
62 | O=C(NCC(F)(F)F)C1CCCN1c1nc2ncccc2o1 (stereo not drawn) [NCGC00480238-01] | > 0.03
63 | O=C(c1ccc(F)cc1)N1CCn2c(nnc2C2CC2)C1 [NCGC00480252-01] | > 0.03

Row | Structure (SMILES) | IC50 [mM]
64 | CC(C)c1nc2c(c(-c3ccc(O)cc3)n1)CCN(Cc1ccccn1)CC2 [NCGC00480326-01] | > 0.03
65 | Oc1ccc(-c2nc(C3CC3)nc3c2CCN(Cc2cccc(F)c2)CC3)cc1 [NCGC00480349-01] | > 0.03
66 | O=C(Nc1ccccc1)N1CCc2nc(C3CC3)nc(-c3ccc(Cl)cc3)c2C1 [NCGC00480419-01] | > 0.03
67 | COCC(=O)N1CCc2nc(C)nc(-c3ccc(OC)cc3)c2C1 [NCGC00480441-01] | > 0.03
68 | O=C(c1ccc(C(F)(F)F)cc1)N1CCc2nc(-c3ccccc3)nc(-c3ccc(Cl)cc3)c2C1 [NCGC00480461-01] | > 0.03
69 | O=C(NCCC1CCCCC1)c1c[nH]c2ncccc12 [NCGC00480521-01] | 0.018
70 | COCCOc1nc(N)c2[nH]c(=O)n(Cc3ccc(C(=O)O)cc3)c2n1 [NCGC00480851-01] | > 0.03
71 | CCCCOc1nc(N)c2[nH]c(=O)n(Cc3cccc(CC(=O)OC)c3)c2n1 [NCGC00508895-01] | > 0.03
72 | Cc1ccc(-n2ncc3c(N4CCCC(C)C4)ncnc32)cc1C (stereo not drawn) [NCGC00523591-01] | 0.000157
73 | CC1CCCN(c2ncnc3c2cnn3-c2cccc(Cl)c2)C1 (stereo not drawn) [NCGC00523592-01] | 0.000785
74 | CCOP(=O)(Cc1ccc(-c2nc3ccccc3s2)cc1)OCC [NCGC00538319-01] | 0.0111
75 | O=C(Nc1ccc(-c2nc3ccccc3s2)c(O)c1)c1ccccc1F [NCGC00594666-01] | > 0.03
76 | COc1cccc(C(=O)Nc2ccc(O)c(-c3nc4ccccc4s3)c2)c1 [NCGC00594707-01] | > 0.03
77 | COc1cccc(C(=O)Nc2ccc(-c3nc4ccccc4s3)c(O)c2)c1 [NCGC00594708-01] | > 0.03
78 | Cc1ccc(C(=O)Nc2ccc(-c3nc4ccccc4s3)c(O)c2)cc1 [NCGC00594710-01] | > 0.03
79 | O=C(Nc1ccc(-c2nc3ccccc3s2)c(O)c1)c1ccccc1 [NCGC00594711-01] | > 0.03
80 | Cc1c(NC(=O)c2ccc(I)o2)cccc1-c1nc2ccccc2s1 [NCGC00595010-01] | 0.007
81 | Cc1c(NC(=O)c2cccc(Cl)c2Cl)cccc1-c1nc2ccccc2s1 [NCGC00595034-01] | > 0.03
82 | Cc1c(NC(=O)Cc2ccccc2)cccc1-c1nc2ccccc2s1 [NCGC00595047-01] | 0.0007
83 | O=C(Nc1ccc(O)c(-c2nc3ccccc3s2)c1)c1cc2ccccc2o1 [NCGC00595541-01] | > 0.03
84 | CCCCC(=O)Nc1cc(-c2nc3ccccc3s2)ccc1C [NCGC00596082-01] | > 0.03
